# Measurements taken from patent US20170334899A1, “AMINO-SUBSTITUTED ISOTHIAZOLES” (Bayer Pharma Aktiengesellschaft, priority 2014, published 2017).
# Experiments:
# [1] = biological target: T1, catalytic domain of human Bub1 (amino acids 704-1085) (Homo sapiens, UniProt O43683); assay: Bub1 kinase assay (TR-FRET); format: biochemical; conditions: 10 μM ATP, avg, read-out: Bub1 avg (IC50 [mol/l])
# T1 construct: catalytic domain of human Bub1 (amino acids 704-1085); His6 (N); made in house; host or cells: insect cells (Hi5)
# How it was run: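 Readout is the 665/620 nm TR-FRET ratio from anti-phosphoserine antibody, Eu-labelled anti-mouse IgG and streptavidin-XL665, scaled between no-enzyme and uninhibited controls. Reaction: 1 μM biotinylated peptide, 10 μM ATP, 60 min, 22 °C, after 15 min compound preincubation with His6-Bub1 (704-1085, insect-expressed, ~200 ng/ml).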
# [2] = tested on: HeLa; assay: Proliferation assay (crystal violet), HeLa; format: cell-based; conditions: Homo sapiens, HeLa, 96 h, HeLa cells; 4 days incubation; crystal violet staining; read-out: IC50 inhibition of proliferation, HeLa
# How it was run: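 Tumor cells seeded at 1000–5000 cells/well in medium with 10% FCS; after 24 h, compounds added at 0.001–10 μM (0.5% DMSO) for 4 days. Cells fixed with glutaraldehyde, stained with crystal violet, dye dissolved in acetic acid and read at 595 nm. IC50 from 4-parameter fit, normalized to zero-point plate and untreated cells.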
# T1 sequence (O43683 704-1085): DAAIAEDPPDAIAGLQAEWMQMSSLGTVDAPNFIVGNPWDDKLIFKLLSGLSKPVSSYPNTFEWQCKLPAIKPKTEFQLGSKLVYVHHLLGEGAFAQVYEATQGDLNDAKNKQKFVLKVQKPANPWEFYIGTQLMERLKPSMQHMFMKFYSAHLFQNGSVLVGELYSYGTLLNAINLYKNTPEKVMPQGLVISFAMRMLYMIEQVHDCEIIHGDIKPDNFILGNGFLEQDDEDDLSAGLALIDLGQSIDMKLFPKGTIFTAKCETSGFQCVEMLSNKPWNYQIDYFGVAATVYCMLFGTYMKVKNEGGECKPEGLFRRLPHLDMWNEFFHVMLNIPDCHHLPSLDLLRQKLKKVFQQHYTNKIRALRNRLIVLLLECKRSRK
IC50 [1] [nM],IC50 [2] [nM],SMILES
14000,340,Cc1nsc(Nc2cnc(C(F)(F)F)cn2)c1C(=O)Nc1ccc(O[C@H]2CCN(CC(F)F)C[C@@H]2F)nc1 [Example 362]
> 20000,340,"Cc1nsc(Nc2cnc(C(F)(F)F)cn2)c1C(=O)Nc1ccc(O[C@H]2CCN(CC(F)(F)F)C[C@@H]2F)nc1 [Example 363, N-(6-{[(3S,4S)-3-fluoro-1-(2,2,2-trifluoroethyl)piperidin-4-yl]oxy}pyridin-3-yl)-3-methyl-5-{[5-(trifluoromethyl)pyrazin-2-yl]amino}-1,2-thiazole-4-carboxamide]"
> 20000,290,"Cc1nsc(Nc2cnc(C(F)(F)F)cn2)c1C(=O)Nc1ccc(O[C@H]2CCN(CCC(F)(F)F)C[C@@H]2F)nc1 [Example 364, N-(6-{[(3S,4S)-3-fluoro-1-(3,3,3-trifluoropropyl)piperidin-4-yl]oxy}pyridin-3-yl)-3-methyl-5-{[5-(trifluoromethyl)pyrazin-2-yl]amino}-1,2-thiazole-4-carboxamide]"
16000,410,"CCN1CC[C@H](Oc2ccc(NC(=O)c3c(C)nsc3Nc3cnc(C(F)(F)F)cn3)cn2)[C@@H](F)C1 [Example 365, N-(6-{[(3S,4S)-1-ethyl-3-fluoropiperidin-4-yl]oxy}pyridin-3-yl)-3-methyl-5-{[5-(trifluoromethyl)pyrazin-2-yl]amino}-1,2-thiazole-4-carboxamide]"
> 20000,300,"Cc1nsc(Nc2cnc(C(F)(F)F)cn2)c1C(=O)Nc1ccc(O[C@@H]2CCN(CC(F)(F)F)C[C@H]2F)nc1 [Example 367, N-(6-{[(3R,4R)-3-fluoro-1-(2,2,2-trifluoroethyl)piperidin-4-yl]oxy}pyridin-3-yl)-3-methyl-5-{[5-(trifluoromethyl)pyrazin-2-yl]amino}-1,2-thiazole-4-carboxamide]"
> 20000,350,"Cc1nsc(Nc2cnc(C(F)(F)F)cn2)c1C(=O)Nc1ccc(O[C@@H]2CCN(CCC(F)(F)F)C[C@H]2F)nc1 [Example 368, N-(6-{[(3R,4R)-3-fluoro-1-(3,3,3-trifluoropropyl)piperidin-4-yl]oxy}pyridin-3-yl)-3-methyl-5-{[5-(trifluoromethyl)pyrazin-2-yl]amino}-1,2-thiazole-4-carboxamide]"
> 20000,390,"CCN1CC[C@@H](Oc2ccc(NC(=O)c3c(C)nsc3Nc3cnc(C(F)(F)F)cn3)cn2)[C@H](F)C1 [Example 369, N-(6-{[(3R,4R)-1-ethyl-3-fluoropiperidin-4-yl]oxy}pyridin-3-yl)-3-methyl-5-{[5-(trifluoromethyl)pyrazin-2-yl]amino}-1,2-thiazole-4-carboxamide]"
> 20000,300,"CCCN1CC[C@H](Oc2ccc(NC(=O)c3c(C)nsc3Nc3cnc(C(F)(F)F)cn3)cn2)[C@@H](F)C1 [Example 370, N-(6-{[(3S,4S)-3-fluoro-1-propylpiperidin-4-yl]oxy}pyridin-3-yl)-3-methyl-5-{[5-(trifluoromethyl)pyrazin-2-yl]amino}-1,2-thiazole-4-carboxamide]"
> 20000,320,"CCCN1CC[C@@H](Oc2ccc(NC(=O)c3c(C)nsc3Nc3cnc(C(F)(F)F)cn3)cn2)[C@H](F)C1 [Example 371, N-(6-{[(3R,4R)-3-fluoro-1-propylpiperidin-4-yl]oxy}pyridin-3-yl)-3-methyl-5-{[5-(trifluoromethyl)pyrazin-2-yl]amino}-1,2-thiazole-4-carboxamide]"
> 20000,1500,"Cc1nsc(Nc2cnc(C(F)(F)F)cn2)c1C(=O)Nc1ccc(N2CCN(CC(F)F)CC2)cn1 [Example 372, N-{5-[4-(2,2-difluoroethyl)piperazin-1-yl]pyridin-2-yl}-3-methyl-5-{[5-(trifluoromethyl)pyrazin-2-yl]amino}-1,2-thiazole-4-carboxamide]"
> 20000,810,"Cc1nsc(Nc2cnc(C(F)(F)F)cn2)c1C(=O)Nc1ccc(N2CCN(CC(F)(F)F)CC2)cn1 [Example 373, 3-methyl-N-{5-[4-(2,2,2-trifluoroethyl)piperazin-1-yl]pyridin-2-yl}-5-{[5-(trifluoromethyl)pyrazin-2-yl]amino}-1,2-thiazole-4-carboxamide]"
> 20000,920,"Cc1nsc(Nc2cnc(C(F)(F)F)cn2)c1C(=O)Nc1ccc(N2CCN(CCC(F)(F)F)CC2)cn1 [Example 374, 3-methyl-5-{[5-(trifluoromethyl)pyrazin-2-yl]amino}-N-{5-[4-(3,3,3-trifluoropropyl)piperazin-1-yl]pyridin-2-yl}-1,2-thiazole-4-carboxamide]"
> 20000,300,"Cc1nsc(Nc2cnc(C(F)(F)F)cn2)c1C(=O)Nc1ccc(OC[C@@H]2CCCN(CC(F)F)C2)nc1 [Example 375, N-(6-{[(3R)-1-(2,2-difluoroethyl)piperidin-3-yl]methoxy}pyridin-3-yl)-3-methyl-5-{[5-(trifluoromethyl)pyrazin-2-yl]amino}-1,2-thiazole-4-carboxamide]"
> 20000,310,"Cc1nsc(Nc2cnc(C(F)(F)F)cn2)c1C(=O)Nc1ccc(OC[C@@H]2CCCN(CC(F)(F)F)C2)nc1 [Example 376, 3-methyl-N-(6-{[(3R)-1-(2,2,2-trifluoroethyl)piperidin-3-yl]methoxy}pyridin-3-yl)-5-{[5-(trifluoromethyl)pyrazin-2-yl]amino}-1,2-thiazole-4-carboxamide]"
> 20000,370,"Cc1nsc(Nc2cnc(C(F)(F)F)cn2)c1C(=O)Nc1ccc(OC[C@@H]2CCCN(CCC(F)(F)F)C2)nc1 [Example 377, 3-methyl-5-{[5-(trifluoromethyl)pyrazin-2-yl]amino}-N-(6-{[(3R)-1-(3,3,3-trifluoropropyl)piperidin-3-yl]methoxy}pyridin-3-yl)-1,2-thiazole-4-carboxamide]"
≥ 20000,620,"Cc1nsc(Nc2cnc(C(F)(F)F)cn2)c1C(=O)Nc1ccc(O[C@@H]2CCN(CC(F)F)C2)nc1 [Example 379, N-(6-{[(3R)-1-(2,2-difluoroethyl)pyrrolidin-3-yl]oxy}pyridin-3-yl)-3-methyl-5-{[5-(trifluoromethyl)pyrazin-2-yl]amino}-1,2-thiazole-4-carboxamide]"
> 20000,550,"Cc1nsc(Nc2cnc(C(F)(F)F)cn2)c1C(=O)Nc1ccc(O[C@@H]2CCN(CC(F)(F)F)C2)nc1 [Example 380, 3-methyl-N-(6-{[(3R)-1-(2,2,2-trifluoroethyl)pyrrolidin-3-yl]oxy}pyridin-3-yl)-5-{[5-(trifluoromethyl)pyrazin-2-yl]amino}-1,2-thiazole-4-carboxamide]"
> 20000,410,"Cc1nsc(Nc2cnc(C(F)(F)F)cn2)c1C(=O)Nc1ccc(O[C@@H]2CCN(CCC(F)(F)F)C2)nc1 [Example 381, 3-methyl-5-{[5-(trifluoromethyl)pyrazin-2-yl]amino}-N-(6-{[(3R)-1-(3,3,3-trifluoropropyl)pyrrolidin-3-yl]oxy}pyridin-3-yl)-1,2-thiazole-4-carboxamide]"
> 20000,180,"Cc1nsc(Nc2cnc(C(F)(F)F)cn2)c1C(=O)Nc1ccc(O[C@H]2CCN(CC(F)F)C2)nc1 [Example 382, N-(6-{[(3S)-1-(2,2-difluoroethyl)pyrrolidin-3-yl]oxy}pyridin-3-yl)-3-methyl-5-{[5-(trifluoromethyl)pyrazin-2-yl]amino}-1,2-thiazole-4-carboxamide]"
≥ 20000,280,"Cc1nsc(Nc2cnc(C(F)(F)F)cn2)c1C(=O)Nc1ccc(O[C@H]2CCN(CC(F)(F)F)C2)nc1 [Example 383, 3-methyl-N-(6-{[(3S)-1-(2,2,2-trifluoroethyl)pyrrolidin-3-yl]oxy}pyridin-3-yl)-5-{[5-(trifluoromethyl)pyrazin-2-yl]amino}-1,2-thiazole-4-carboxamide]"
≥ 20000,340,"Cc1nsc(Nc2cnc(C(F)(F)F)cn2)c1C(=O)Nc1ccc(O[C@H]2CCN(CCC(F)(F)F)C2)nc1 [Example 384, 3-methyl-5-{[5-(trifluoromethyl)pyrazin-2-yl]amino}-N-(6-{[(3S)-1-(3,3,3-trifluoropropyl)pyrrolidin-3-yl]oxy}pyridin-3-yl)-1,2-thiazole-4-carboxamide]"
> 20000,290,"Cc1nsc(Nc2cnc(C(F)(F)F)cn2)c1C(=O)Nc1ccc(O[C@@H]2CCCN(CC(F)(F)F)C2)nc1 [Example 386, 3-methyl-N-(6-{[(3R)-1-(2,2,2-trifluoroethyl)piperidin-3-yl]oxy}pyridin-3-yl)-5-{[5-(trifluoromethyl)pyrazin-2-yl]amino}-1,2-thiazole-4-carboxamide]"
> 20000,400,"Cc1nsc(Nc2cnc(C(F)(F)F)cn2)c1C(=O)Nc1ccc(O[C@@H]2CCCN(CCC(F)(F)F)C2)nc1 [Example 387, 3-methyl-5-{[5-(trifluoromethyl)pyrazin-2-yl]amino}-N-(6-{[(3R)-1-(3,3,3-trifluoropropyl)piperidin-3-yl]oxy}pyridin-3-yl)-1,2-thiazole-4-carboxamide]"
> 20000,490,"Cc1nsc(Nc2cnc(C(F)(F)F)cn2)c1C(=O)Nc1ccc(OCC2CCN(CC(F)(F)F)CC2(F)F)nc1 (stereo not drawn) [Example 392, N-(6-{[3,3-difluoro-1-(2,2,2-trifluoroethyl)piperidin-4-yl]methoxy}pyridin-3-yl)-3-methyl-5-{[5-(trifluoromethyl)pyrazin-2-yl]amino}-1,2-thiazole-4-carboxamide]"
